# According to patent US20020111274A1, “1-alkyl-3-[1-(substituted phenyl) benzotriazol-6-yl] uracils” (BASF Aktiengesellschaft, priority 2000, published 2002):
# What was measured:
# Parameters in all cases: scale not given here
# [1] = tested on: TRZAWR Wheat, Winter, cv Riband; experiment: Preemergence herbicidal evaluation, TRZAWR; assay type: in vivo, Triticum aestivum; settings: preemergence
# Outline: (§1)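 Seeds mixed with potting soil in cups, then sprayed preemergence with aqueous acetone test solution at about 0.013 to 0.800 kg per hectare equivalent. Cups kept under standard greenhouse care; plants rated on a visual scale four to five weeks after treatment.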
# [2] = tested on: CASOB Sicklepod; experiment: Preemergence herbicidal evaluation, CASOB; assay type: in vivo, Cassia obtusifolia, L.; settings: preemergence
# Outline: as §1
# [3] = tested on: GLXMAW Soybean, Williams; experiment: Postemergence herbicidal evaluation, GLXMAW; assay type: in vivo, Glycine max, (L.) Merr. cv Williams; settings: postemergence spray, rated about two-three weeks after treatment
# Outline: (§2)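 Visual injury rating ~2–3 wk post-spray; replicate tests averaged. Two-week-old seedlings; foliar spray at 40 psi; 0.006–0.400 kg ai/ha in 80/20 acetone/water + 1.0% methylated seed oil.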
# [4] = tested on: CHEAL Lambsquarters, Common; experiment: Postemergence herbicidal evaluation, CHEAL; assay type: in vivo, Chenopodium album, L.; settings: postemergence spray, rated about two-three weeks after treatment
# Outline: as §2
# [5] = tested on: IPOHE Morningglory, Ivyleaf; experiment: Postemergence herbicidal evaluation, IPOHE; assay type: in vivo, Ipomoea hederacea, (L.) Jacq.; settings: postemergence spray, rated about two-three weeks after treatment
# Outline: as §2
# [6] = tested on: CASOB Sicklepod; experiment: Postemergence herbicidal evaluation, CASOB; assay type: in vivo, Cassia obtusifolia, L.; settings: postemergence spray, rated about two-three weeks after treatment
# Outline: as §2
# [7] = tested on: GLXMAW Soybean, Williams; experiment: Preemergence herbicidal evaluation, GLXMAW; assay type: in vivo, Glycine max, (L.) Merr. cv Williams; settings: preemergence
# Outline: as §1
# [8] = tested on: ECHOG Barnyardgrass; experiment: Preemergence herbicidal evaluation, ECHOG; assay type: in vivo, Echinochloa crus-galli, (L.) Beau; settings: preemergence
# Outline: as §1
# [9] = tested on: CHEAL Lambsquarters, Common; experiment: Preemergence herbicidal evaluation, CHEAL; assay type: in vivo, Chenopodium album, L.; settings: preemergence
# Outline: as §1
# [10] = tested on: ZEAMX Corn, Field; experiment: Postemergence herbicidal evaluation, ZEAMX; assay type: in vivo, Zea mays, L. (Sammel-Bezeichnung); settings: postemergence spray, rated about two-three weeks after treatment
# Outline: as §2
# [11] = tested on: GALAP Galium; experiment: Preemergence herbicidal evaluation, GALAP; assay type: in vivo, Galium aparine; settings: preemergence
# Outline: as §1
# [12] = tested on: ORYSAT Rice, Tebonnet; experiment: Preemergence herbicidal evaluation, ORYSAT; assay type: in vivo, Oryza sativa, (L.); settings: preemergence
# Outline: as §1
# [13] = tested on: AMBEL Ragweed, Common; experiment: Preemergence herbicidal evaluation, AMBEL; assay type: in vivo, Ambrosia artemisifolia, L.; settings: preemergence
# Outline: as §1
# [14] = tested on: SETVI Foxtail, Green; experiment: Postemergence herbicidal evaluation, SETVI; assay type: in vivo, Setaria viridis, (L.) Beau; settings: postemergence spray, rated about two-three weeks after treatment
# Outline: as §2
# [15] = tested on: ZEAMX Corn, Field; experiment: Preemergence herbicidal evaluation, ZEAMX; assay type: in vivo, Zea mays, L. (Sammel-Bezeichnung); settings: preemergence
# Outline: as §1
# [16] = tested on: ORYSAT Rice, Tebonnet; experiment: Postemergence herbicidal evaluation, ORYSAT; assay type: in vivo, Oryza sativa, (L.); settings: postemergence spray, rated about two-three weeks after treatment
# Outline: as §2
# [17] = tested on: ABUTH Velvetleaf; experiment: Postemergence herbicidal evaluation, ABUTH; assay type: in vivo, Abutilon theophrasti, Medic.; settings: postemergence spray, rated about two-three weeks after treatment
# Outline: as §2
# [18] = tested on: SETVI Foxtail, Green; experiment: Preemergence herbicidal evaluation, SETVI; assay type: in vivo, Setaria viridis, (L.) Beau; settings: preemergence
# Outline: as §1
# [19] = tested on: ABUTH Velvetleaf; experiment: Preemergence herbicidal evaluation, ABUTH; assay type: in vivo, Abutilon theophrasti, Medic.; settings: preemergence
# Outline: as §1
# [20] = tested on: AMBEL Ragweed, Common; experiment: Postemergence herbicidal evaluation, AMBEL; assay type: in vivo, Ambrosia artemisifolia, L.; settings: postemergence spray, rated about two-three weeks after treatment
# Outline: as §2
# [21] = tested on: IPOHE Morningglory, Ivyleaf; experiment: Preemergence herbicidal evaluation, IPOHE; assay type: in vivo, Ipomoea hederacea, (L.) Jacq.; settings: preemergence
# Outline: as §1
# [22] = tested on: GALAP Galium; experiment: Postemergence herbicidal evaluation, GALAP; assay type: in vivo, Galium aparine; settings: postemergence spray, rated about two-three weeks after treatment
# Outline: as §2
# [23] = tested on: TRZAWR Wheat, Winter, cv Riband; experiment: Postemergence herbicidal evaluation, TRZAWR; assay type: in vivo, Triticum aestivum; settings: postemergence spray, rated about two-three weeks after treatment
# Outline: as §2
# [24] = tested on: ECHOG Barnyardgrass; experiment: Postemergence herbicidal evaluation, ECHOG; assay type: in vivo, Echinochloa crus-galli, (L.) Beau; settings: postemergence spray, rated about two-three weeks after treatment
# Outline: as §2
smiles,measurement,setting,value
COC(=O)COc1ccccc1-n1nnc2cc(F)c(-n3c(=O)cc(C(F)(F)F)n(C)c3=O)cc21 [Example 35],TRZAWR herbicidal rating,[1]; rate 0.016 kg/ha,0.0
same,TRZAWR herbicidal rating,[1]; rate 0.032 kg/ha,0.0
same,TRZAWR herbicidal rating,[1]; rate 0.062 kg/ha,1.0
same,TRZAWR herbicidal rating,[1]; rate 0.125 kg/ha,1.0
same,CASOB herbicidal rating,[2]; rate 0.016 kg/ha,0.0
same,CASOB herbicidal rating,[2]; rate 0.032 kg/ha,0.0
same,CASOB herbicidal rating,[2]; rate 0.062 kg/ha,4.0
same,CASOB herbicidal rating,[2]; rate 0.125 kg/ha,2.0
same,Postemergence herbicidal rating GLXMAW,[3]; 0.008 kg/ha,5.0
same,Postemergence herbicidal rating GLXMAW,[3]; 0.016 kg/ha,4.5
same,Postemergence herbicidal rating GLXMAW,[3]; 0.032 kg/ha,6.0
same,Postemergence herbicidal rating GLXMAW,[3]; 0.062 kg/ha,7.5
same,Postemergence herbicidal rating CHEAL,[4]; 0.008 kg/ha,1.0
same,Postemergence herbicidal rating CHEAL,[4]; 0.016 kg/ha,4.0
same,Postemergence herbicidal rating CHEAL,[4]; 0.032 kg/ha,6.0
same,Postemergence herbicidal rating CHEAL,[4]; 0.062 kg/ha,7.0
same,Postemergence herbicidal rating IPOHE,[5]; 0.008 kg/ha,9.0
same,Postemergence herbicidal rating IPOHE,[5]; 0.016 kg/ha,4.0
same,Postemergence herbicidal rating IPOHE,[5]; 0.032 kg/ha,9.0
same,Postemergence herbicidal rating IPOHE,[5]; 0.062 kg/ha,9.0
same,Postemergence herbicidal rating CASOB,[6]; 0.008 kg/ha,1.0
same,Postemergence herbicidal rating CASOB,[6]; 0.016 kg/ha,1.0
same,Postemergence herbicidal rating CASOB,[6]; 0.032 kg/ha,2.0
same,Postemergence herbicidal rating CASOB,[6]; 0.062 kg/ha,2.0
same,GLXMAW herbicidal rating,[7]; rate 0.016 kg/ha,1.0
same,GLXMAW herbicidal rating,[7]; rate 0.032 kg/ha,0.0
same,GLXMAW herbicidal rating,[7]; rate 0.062 kg/ha,1.5
same,GLXMAW herbicidal rating,[7]; rate 0.125 kg/ha,2.5
same,ECHCG herbicidal rating,[8]; rate 0.016 kg/ha,0.0
same,ECHCG herbicidal rating,[8]; rate 0.032 kg/ha,0.0
same,ECHCG herbicidal rating,[8]; rate 0.062 kg/ha,2.0
same,ECHCG herbicidal rating,[8]; rate 0.125 kg/ha,4.5
same,CHEAL herbicidal rating,[9]; rate 0.016 kg/ha,0.0
same,CHEAL herbicidal rating,[9]; rate 0.032 kg/ha,9.0
same,CHEAL herbicidal rating,[9]; rate 0.062 kg/ha,9.0
same,CHEAL herbicidal rating,[9]; rate 0.125 kg/ha,9.0
same,Postemergence herbicidal rating ZEAMX,[10]; 0.008 kg/ha,5.0
same,Postemergence herbicidal rating ZEAMX,[10]; 0.016 kg/ha,4.5
same,Postemergence herbicidal rating ZEAMX,[10]; 0.032 kg/ha,5.5
same,Postemergence herbicidal rating ZEAMX,[10]; 0.062 kg/ha,7.5
same,GALAP herbicidal rating,[11]; rate 0.016 kg/ha,0.0
same,GALAP herbicidal rating,[11]; rate 0.032 kg/ha,0.0
same,GALAP herbicidal rating,[11]; rate 0.062 kg/ha,0.0
same,GALAP herbicidal rating,[11]; rate 0.125 kg/ha,5.0
same,ORYSAT herbicidal rating,[12]; rate 0.016 kg/ha,0.0
same,ORYSAT herbicidal rating,[12]; rate 0.032 kg/ha,0.0
same,ORYSAT herbicidal rating,[12]; rate 0.062 kg/ha,3.5
same,ORYSAT herbicidal rating,[12]; rate 0.125 kg/ha,6.0
same,AMBEL herbicidal rating,[13]; rate 0.016 kg/ha,0.0
same,AMBEL herbicidal rating,[13]; rate 0.032 kg/ha,0.0
same,AMBEL herbicidal rating,[13]; rate 0.062 kg/ha,3.5
same,AMBEL herbicidal rating,[13]; rate 0.125 kg/ha,5.0
same,Postemergence herbicidal rating SETVI,[14]; 0.008 kg/ha,1.0
same,Postemergence herbicidal rating SETVI,[14]; 0.016 kg/ha,9.0
same,Postemergence herbicidal rating SETVI,[14]; 0.032 kg/ha,9.0
same,Postemergence herbicidal rating SETVI,[14]; 0.062 kg/ha,8.0
same,ZEAMX herbicidal rating,[15]; rate 0.016 kg/ha,0.0
same,ZEAMX herbicidal rating,[15]; rate 0.032 kg/ha,0.0
same,ZEAMX herbicidal rating,[15]; rate 0.062 kg/ha,1.0
same,ZEAMX herbicidal rating,[15]; rate 0.125 kg/ha,3.0
same,Postemergence herbicidal rating ORYSAT,[16]; 0.008 kg/ha,3.0
same,Postemergence herbicidal rating ORYSAT,[16]; 0.016 kg/ha,3.5
same,Postemergence herbicidal rating ORYSAT,[16]; 0.032 kg/ha,6.0
same,Postemergence herbicidal rating ORYSAT,[16]; 0.062 kg/ha,7.0
same,Postemergence herbicidal rating ABUTH,[17]; 0.008 kg/ha,5.0
same,Postemergence herbicidal rating ABUTH,[17]; 0.016 kg/ha,5.0
same,Postemergence herbicidal rating ABUTH,[17]; 0.032 kg/ha,9.0
same,Postemergence herbicidal rating ABUTH,[17]; 0.062 kg/ha,9.0
same,SETVI herbicidal rating,[18]; rate 0.016 kg/ha,0.0
same,SETVI herbicidal rating,[18]; rate 0.032 kg/ha,1.5
same,SETVI herbicidal rating,[18]; rate 0.062 kg/ha,6.5
same,SETVI herbicidal rating,[18]; rate 0.125 kg/ha,9.0
same,ABUTH herbicidal rating,[19]; rate 0.016 kg/ha,0.0
same,ABUTH herbicidal rating,[19]; rate 0.032 kg/ha,4.0
same,ABUTH herbicidal rating,[19]; rate 0.062 kg/ha,9.0
same,ABUTH herbicidal rating,[19]; rate 0.125 kg/ha,5.5
same,Postemergence herbicidal rating AMBEL,[20]; 0.008 kg/ha,4.0
same,Postemergence herbicidal rating AMBEL,[20]; 0.016 kg/ha,5.0
same,Postemergence herbicidal rating AMBEL,[20]; 0.032 kg/ha,9.0
same,Postemergence herbicidal rating AMBEL,[20]; 0.062 kg/ha,9.0
same,IPOHE herbicidal rating,[21]; rate 0.016 kg/ha,0.0
same,IPOHE herbicidal rating,[21]; rate 0.032 kg/ha,4.5
same,IPOHE herbicidal rating,[21]; rate 0.062 kg/ha,5.0
same,IPOHE herbicidal rating,[21]; rate 0.125 kg/ha,9.0
same,Postemergence herbicidal rating GALAP,[22]; 0.008 kg/ha,1.0
same,Postemergence herbicidal rating GALAP,[22]; 0.016 kg/ha,1.0
same,Postemergence herbicidal rating GALAP,[22]; 0.032 kg/ha,3.0
same,Postemergence herbicidal rating GALAP,[22]; 0.062 kg/ha,4.0
same,Postemergence herbicidal rating TRZAWR,[23]; 0.008 kg/ha,3.5
same,Postemergence herbicidal rating TRZAWR,[23]; 0.016 kg/ha,3.0
same,Postemergence herbicidal rating TRZAWR,[23]; 0.032 kg/ha,5.5
same,Postemergence herbicidal rating TRZAWR,[23]; 0.062 kg/ha,7.0
same,Postemergence herbicidal rating ECHCG,[24]; 0.008 kg/ha,2.0
same,Postemergence herbicidal rating ECHCG,[24]; 0.016 kg/ha,4.0
same,Postemergence herbicidal rating ECHCG,[24]; 0.032 kg/ha,7.0
same,Postemergence herbicidal rating ECHCG,[24]; 0.062 kg/ha,9.0
